This note sets out measurements from patent EP1487434B1, “BOTANICAL EXTRACT COMPOSITIONS WITH ANTI-CANCER ACTIVITY COMPRISING ISOLIQUIRITIGENIN” (The Medical Research and Education Trust, priority 2002, dated 2003).

Converted amounts (≈) assume the structure as drawn.

Common to all, as to format: cell-based
In assay [1] the test system is DU-145 (androgen-independent) prostate cancer cells. In words: MTT cell viability assay, DU-145. Conditions: Homo sapiens, DU-145, 72 h, read-out: ED50 values from MTT Assay, DU145. The text has this:
(§1) Cancer cell lines: LNCaP, DU-145, and MCF-7 cells were purchased from the American Type Culture Collection. PTX 10, a taxol-resistant ovarian cancer cell line, was obtained from the Brander Cancer Research Laboratory, New York Medical College. Cells were maintained in RPMI 1640 culture media supplemented with 10% heat-inactivated FBS, 5 millimolar glutamine, 50 units/milliliter of penicillin G, and 50 […] of streptomycin. The cells were routinely seeded at 1X 10^5 cells/milliliter in T-75 flasks, allowed to attach overnight, then treated with the herbal extract. At different times, cells were harvested by trypsinization.
(§2) The MTT assay (MTT = 3-(4,5-dimethylthiazol-2-yl)-2,5-diphenyl tetrazolium bromide) was used to count viable cells. The assay reagents were purchased from Boehringer Mannheim (Roche Diagnosis Corp, Indianapolis, Indiana). […] The protocol for the cell , viability assay was provided by the manufacturer and modified in our laboratory as described below.
(§3) Prostate or breast (reference) cancer cells were seeded in 96 well microtiter plates at a concentration of 3x10^3 cells per well (MCF-7; breast cancer cells) or 6x10^3 cells per well (LNCaP or DU145; prostate cancer cells), in a volume of 100 microliters of cell culture medium. After 24 hours, 20 microliter aliquots of the compounds at various concentrations were added to the attached cells. […]

Assay [2] deals with T1, hERβ (Homo sapiens, UniProt Q92731).
T1 construct: expressed in transfected cells; host or cells: HEK 293 cells (ATCC CRL-1573)
T1 sequence (Q92731 whole entry): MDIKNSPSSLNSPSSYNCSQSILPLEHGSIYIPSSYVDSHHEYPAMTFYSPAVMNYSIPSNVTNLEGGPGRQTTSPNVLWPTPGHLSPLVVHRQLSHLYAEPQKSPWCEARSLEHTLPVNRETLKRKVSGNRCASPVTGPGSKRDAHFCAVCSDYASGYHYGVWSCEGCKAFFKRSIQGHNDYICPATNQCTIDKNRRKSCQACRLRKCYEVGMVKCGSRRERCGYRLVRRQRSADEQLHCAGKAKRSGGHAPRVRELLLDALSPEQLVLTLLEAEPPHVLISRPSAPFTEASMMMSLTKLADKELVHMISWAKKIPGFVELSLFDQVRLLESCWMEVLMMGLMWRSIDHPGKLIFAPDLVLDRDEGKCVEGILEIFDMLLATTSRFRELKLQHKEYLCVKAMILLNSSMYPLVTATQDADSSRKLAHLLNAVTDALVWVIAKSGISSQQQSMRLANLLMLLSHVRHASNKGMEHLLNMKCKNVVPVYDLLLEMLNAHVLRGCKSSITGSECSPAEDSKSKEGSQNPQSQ
In words: ERβ-Luc reporter gene activation in transfected HEK 293 cells. To be noted: for capability in activating ERβ-Luc reporter gene than the ERα-Luc reporter gene: ERβ-Luc versus ERα-Luc, 1200 min; for ERβ-Luc reporter gene activation: HEK 293 cells, 0 to 9 µg/ml, 20 hours. From the text:
(§4) HEK 293 cells (ATCC CRL-1573) were transfected with an expression vector for hERα and hERβ respectively, and an ERE-LUC reporter gene (plus a TK-LUC reporter for normalization) following the protocol of Yoon et al ("Differential activation of wild-type and variant forms of estrogen receptor α by synthetic and natural estrogenic compounds using a promoter containing three estrogen-responsive elements", J. Steroid Biochem. & Molecular Biology (2000), 28: pages 25-32).

The subject of assay [3] is LNCaP cells. The assay is described as follows: Cell cycle measurement by DNA content flow cytometry, LNCaP. To be noted: two concentrations, 24-48 hours exposure. As for the experimental part: (§5) The cells were washed with phosphate buffered saline (PBS) and fixed in ice-cold 70% ethanol. Aliquots of fixed cells were rehydrated in PBS and stained with 1.0 microgram/milliliter DAPI (4,6-diamidino-2-phenylindole from Eastman Kodak, Rochester, NY), and dissolved in 10 millimolar piperazine-N,N-bis-2-ethane-sulfonic acid buffer (Calbiochem, La Jolla, CA) containing 100 millimolar NaCl, 2mM MgCl2 and 0.1% Triton X-100 (Sigma) at pH 6.8 as previously described by Halicka et al. (H. D. Halicka, B. Ardelt, G. Juan, A. Mittelman, S. Chen, F. Traganos and Z. Darzynkiewicz, "Apoptosis and Cell Cycle Effects Induced by Extracts of the Chinese Herbal Preparation of PC SPES", International J. of Oncology (1997), 11: 437-448).
(§6) The cellular DNA content was measured with an ELITE ESP flow cytometer (Coulter Inc., F1.) using UV laser illumination. The multicycle program was used to deconvolute the DNA frequency histograms to estimate the frequency of cells in different phases of the cell cycle.
On the technique in general: In flow cytometry, cells or beads pass a laser one at a time.

The subject of assay [4] is LNCaP (androgen-dependent) prostate cancer cells. The assay is described as follows: MTT cell viability assay, LNCaP. To be noted: Homo sapiens, 72 h, read-out: ED50 values from MTT Assay, LNCaP.
Source text: as §1, §2, §3

Assay [5] deals with PTX 10, a taxol resistant ovarian cancer cell line. In words: MTT cell viability assay, PTX 10. Conditions: PTX10, 72 h, read-out: ED50, PTX 10 (taxol resistant Ovarian cancer cell).
Assay [6] concerns the target T2, hERα (Homo sapiens, UniProt P03372).
T2 construct: expressed in transfected cells; host or cells: HEK 293 cells (ATCC CRL-1573)
In words: ERα-Luc reporter gene activation in transfected HEK 293 cells. To be noted: 0 to 9 µg/ml, 20 hours.
Source text: as §4

Assay [7] has as its system MCF-7 breast cancer cells. In words: MTT cell viability assay, MCF-7. Conditions: Homo sapiens, MCF7; concentration giving 50% inhibition of cancer cell growth, 72 hours, linear interpolation; read-out: ED50 values from MTT Assay, MCF7.
Source text: as §1, §2, §3
For orientation: Tetrazolium dyes change colour on reduction, which living cells bring about.

Assay [8] concerns DU-145. The assay is described as follows: Cell cycle measurement by DNA content flow cytometry, DU-145. Conditions: protocol of Example 3. The method, then: as §5, §6
A prolongation in the G2M phase leads to the suppression of DU-145 cell proliferation.

T2 sequence (P03372 whole entry): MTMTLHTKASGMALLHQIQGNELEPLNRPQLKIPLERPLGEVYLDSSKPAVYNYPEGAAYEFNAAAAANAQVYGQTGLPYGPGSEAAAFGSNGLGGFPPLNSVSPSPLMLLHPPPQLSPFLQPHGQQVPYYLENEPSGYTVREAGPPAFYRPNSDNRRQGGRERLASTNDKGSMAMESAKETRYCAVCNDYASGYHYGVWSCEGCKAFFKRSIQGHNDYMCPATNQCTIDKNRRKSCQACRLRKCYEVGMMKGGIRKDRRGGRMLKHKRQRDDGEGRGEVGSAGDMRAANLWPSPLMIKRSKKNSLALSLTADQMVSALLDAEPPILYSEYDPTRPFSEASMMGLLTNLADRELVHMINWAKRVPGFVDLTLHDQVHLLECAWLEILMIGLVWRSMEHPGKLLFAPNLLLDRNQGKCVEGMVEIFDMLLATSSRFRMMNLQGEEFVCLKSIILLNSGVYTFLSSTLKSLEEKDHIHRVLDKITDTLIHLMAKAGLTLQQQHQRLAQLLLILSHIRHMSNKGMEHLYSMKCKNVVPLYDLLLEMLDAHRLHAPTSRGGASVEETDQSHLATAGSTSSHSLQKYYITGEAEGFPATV

For the molecule `O=C(/C=C/c1ccc(O)cc1)c1ccc(O)cc1O` [isoliquiritigenin, 2',4,4'-trihydroxychalcone], the IC50 in assay [1] stood at 7.6 µg/mL (≈ 29.7 µM); in assay [4] it was 3.51 µg/mL (≈ 13.7 µM); in assay [5] it was 3.32 µg/mL (≈ 13 µM); in assay [7] it was 3.25 µg/mL (≈ 12.7 µM). Besides, in assay [2], the “capability in activating ERβ-Luc reporter gene than the ERα-Luc reporter gene” value was “at least 10 times”. In addition, the “ERβ-Luc reporter gene activation” value in assay [2] is listed as “dose-responsive behavior”. Also, in assay [3], the “effect on G1, S, and G2M phases of the LNCaP cell cycle” value is “G2M phase arrest”. Further, the “ERα-Luc reporter gene activation” value in assay [6] is reported as “dose-responsive behavior”.

As to `COc1c(O)cc(O)c2c(=O)cc(-c3ccccc3)oc12` [Wogonin, 5,7-dihydroxy-8-methoxy-flavone], in assay [2], the “capability in activating ERβ-Luc reporter gene than the ERα-Luc reporter gene” value is “at least 10 times” and the “ERβ-Luc reporter gene activation” value was “dose-responsive behavior”. Besides, the “effect on G1, S, and G2M phases of the LNCaP cell cycle” value in assay [3] was “G1 phase arrest”. Moreover, in assay [8], the “effect on DU-145 cell cycle” value is “prolonged the G2M phase”. The “ERα-Luc reporter gene activation” value in assay [6] is on record as “dose-responsive behavior”.
